Reference: patent US8445690B2, “Aminothiazolones as estrogen related receptor-alpha modulators” (Janssen Pharmaceutica NV, priority 2010, dated 2013)

Target: T1, ERR1 (also known as ERR-α or ERR-1) (Homo sapiens, UniProt P11474)
T1 sequence (P11474 193-421 limits assumed): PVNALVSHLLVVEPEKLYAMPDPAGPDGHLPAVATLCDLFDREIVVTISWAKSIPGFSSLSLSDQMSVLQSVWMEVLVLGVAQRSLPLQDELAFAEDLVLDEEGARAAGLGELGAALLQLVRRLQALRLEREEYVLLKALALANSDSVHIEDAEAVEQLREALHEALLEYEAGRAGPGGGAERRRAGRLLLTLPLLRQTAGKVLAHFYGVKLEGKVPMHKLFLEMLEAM
Assay: TR-FRET assay: disruption of co-activator peptide (GST-hSRC2) binding to 6His-tagged ERR1 LBD
Assay type: biochemical
Settings: 6 nM ERR1LBD, 6 nM GST-SRC-2 peptide, 25° C., 4-18 hours; average of 3 independent experiments
Protocol: Time-Resolved Fluorescence Resonance Energy Transfer (TR-FRET) experiments were performed to examine the functional response of ERR1 (also known as ERR-α or ERR-1) ligands. The TR-FRET assay described herein relied on the conformation of ERR1 for binding to a co-activator peptide: when a test compound binds to ERR1 and alters its conformation, it can disrupt the binding of the co-activator peptide. The components of this homogeneous secondary assay included: the ^6His-tagged-ERR1LBD, a GST-labeled-hSRC2 co-activator polypeptide and a fluorescent donor/acceptor pair from CIS bio international htrf/bioassays (Bedford, Mass.) using both an α-GST Europium Cryptate (Eu) label and an α^6His-XL665 (allophycocyanin) fluorophore.
For TR-FRET measurements, the reaction was buffered in 25 mM Tris pH 8, 2.5 mM Hepes, 20 mM KCl, 1 mM DTT, and 0.05 mg/mL BSA (-lipids). The final concentrations of reagents were 6 nM of ERR1LBD, 6 nM GST-SRC-2 peptide, 30 nM Eu cryptate, and 7.5 nM XL665. Reactions were allowed to reach equilibrium at 25° C. for 4-18 hours before collecting data on the Analyst from LJL Biosystems (Molecular Devices Sunnyvale, Calif.). As a time-resolved method, the samples were excited at […] and emission was collected for 1 ms at both 615 and 665 nm with delays of 400 and 75 μs, respectively. Dose response curves were fitted using a hyperbolic equation and the data reported is the average of 3 independent experiments.
Compounds listed in Tables II below were tested in the above assay, and they are all active modulators of ERR1.

Compound | EC50
O=C1N=C(N[C@H]2CCNC2)S/C1=C\c1ccc2c(cnn2Cc2ccc(Cl)cc2C(F)(F)F)c1 [Compound 21, 5-[1-(4-Chloro-2-trifluoromethyl-benzyl)-1H-indazol-5-ylmethylene]-2-(pyrrolidin-3S-ylamino)-thiazol-4-one] | 4.6 nM
O=C1N=C(NCCN2CCCC2=O)S/C1=C\c1ccc2c(cnn2Cc2ccc(C(F)(F)F)cc2C(F)(F)F)c1 [Compound 34, 5-[1-(2,4-Bis-trifluoromethyl-benzyl)-1H-indazol-5-ylmethylene]-2-[2-(2-oxo-pyrrolidin-1-yl)-ethylamino]-thiazol-4-one] | 30.8 nM
CN(C)CCCNC1=NC(=O)/C(=C/c2ccc3c(cnn3Cc3ccc(C(F)(F)F)cc3C(F)(F)F)c2)S1 [Compound 2, 5-[1-(2,4-Bis-trifluoromethyl-benzyl)-1H-indazol-5-ylmethylene]-2-(3-dimethylamino-propylamino)-thiazol-4-one] | 12 nM
O=C1N=C(NC2(C(=O)O)CC2)S/C1=C\c1ccc2c(cnn2Cc2ccc(C(F)(F)F)cc2C(F)(F)F)c1 [Compound 14, 1-{5-[1-(2,4-Bis-trifluoromethyl-benzyl)-1H-indazol-5-ylmethylene]-4-oxo-4,5-dihydro-thiazol-2-ylamino}-cyclopropanecarboxylic acid] | 6.5 nM
O=C1N=C(NC2CCN(CCO)CC2)S/C1=C\c1ccc2c(cnn2Cc2ccc(Cl)cc2C(F)(F)F)c1 [Compound 22, 5-[1-(4-Chloro-2-trifluoromethyl-benzyl)-1H-indazol-5-ylmethylene]-2-[1-(2-hydroxy-ethyl)-piperidin-4-ylamino]-thiazol-4-one] | 14 nM
O=C1N=C(NCc2cccnc2)S/C1=C\c1ccc2c(cnn2Cc2ccc(Cl)cc2C(F)(F)F)c1 [Compound 23, 5-[1-(4-Chloro-2-trifluoromethyl-benzyl)-1H-indazol-5-ylmethylene]-2-[(pyridin-3-ylmethyl)-amino]-thiazol-4-one] | 17 nM
O=C1N=C(NCc2cncnc2)S/C1=C\c1ccc2c(cnn2Cc2ccc(Cl)cc2C(F)(F)F)c1 [Compound 32, 5-[1-(4-Chloro-2-trifluoromethyl-benzyl)-1H-indazol-5-ylmethylene]-2-[(pyrimidin-5-ylmethyl)-amino]-thiazol-4-one] | 8.6 nM
O=C1N=C(NCCn2cncn2)S/C1=C\c1ccc2c(cnn2Cc2ccc(C(F)(F)F)cc2C(F)(F)F)c1 [Compound 17, 5-[1-(2,4-Bis-trifluoromethyl-benzyl)-1H-indazol-5-ylmethylene]-2-(2-[1,2,4]triazol-1-yl-ethylamino)-thiazol-4-one] | 7.6 nM
COc1ccc(Cn2ncc3cc(/C=C4\SC(NCCN5CCOCC5)=NC4=O)ccc32)c(C(F)(F)F)c1 [Compound 5, 5-[1-(4-Methoxy-2-trifluoromethyl-benzyl)-1H-indazol-5-ylmethylene]-2-(2-morpholin-4-yl-ethylamino)-thiazol-4-one] | 3.2 nM
CN(C)CCCNC1=NC(=O)/C(=C/c2ccc3c(cnn3Cc3ccc(F)cc3C(F)(F)F)c2)S1 [Compound 1, 2-(3-Dimethylamino-propylamino)-5-[1-(4-fluoro-2-trifluoromethyl-benzyl)-1H-indazol-5-ylmethylene]-thiazol-4-one] | 77 nM
O=C1N=C(N[C@H]2CN3CCC2CC3)S/C1=C\c1ccc2c(cnn2Cc2ccc(C(F)(F)F)cc2C(F)(F)F)c1 [Compound 26, 2-(1-Aza-bicyclo[2.2.2]oct-3(R)-ylamino)-5-[1-(2,4-bis-trifluoromethyl-benzyl)-1H-indazol-5-ylmethylene]-thiazol-4-one] | 36 nM
CN1CCC(NC2=NC(=O)/C(=C/c3ccc4c(cnn4Cc4ccc(Cl)cc4C(F)(F)F)c3)S2)CC1 [Compound 25, 5-[1-(4-Chloro-2-trifluoromethyl-benzyl)-1H-indazol-5-ylmethylene]-2-(1-methyl-piperidin-4-ylamino)-thiazol-4-one] | 42 nM
COc1ccc(Cn2ncc3cc(/C=C4\SC(NCCN5CCCC5)=NC4=O)ccc32)c(C(F)(F)F)c1 [Compound 6, 5-[1-(4-Methoxy-2-trifluoromethyl-benzyl)-1H-indazol-5-ylmethylene]-2-(2-pyrrolidin-1-yl-ethylamino)-thiazol-4-one] | 4.5 nM

Now from value to compound:

EC50 | Compound
18 nM | O=C(O)CCCNC1=NC(=O)/C(=C/c2ccc3c(cnn3Cc3ccc(Cl)cc3C(F)(F)F)c2)S1 [Compound 37, 4-{5-[1-(4-Chloro-2-trifluoromethyl-benzyl)-1H-indazol-5-ylmethylene]-4-oxo-4,5-dihydro-thiazol-2-ylamino}-butyric acid]
6.6 nM | CN1CCN(CCNC2=NC(=O)/C(=C/c3ccc4c(cnn4Cc4ccc(Cl)cc4C(F)(F)F)c3)S2)CC1 [Compound 39, 5-[1-(4-Chloro-2-trifluoromethyl-benzyl)-1H-indazol-5-ylmethylene]-2-[2-(4-methyl-piperazin-1-yl)-ethylamino]-thiazol-4-one]
37 nM | O=C1N=C(N[C@@H]2CNC[C@H]2O)S/C1=C\c1ccc2c(cnn2Cc2ccc(Cl)cc2C(F)(F)F)c1 [Compound 47, (5Z)-5-({1-[4-Chloro-2-(trifluoromethyl)benzyl]-1H-indazol-5-yl}methylidene)-2-{[(3R,4R)-4-hydroxypyrrolidin-3-yl]amino}-1,3-thiazol-4(5H)-one]
10 nM | O=C1N=C(NCc2c[nH]nn2)S/C1=C\c1ccc2c(cnn2Cc2ccc(Cl)cc2C(F)(F)F)c1 [Compound 42, 5-[1-(4-Chloro-2-trifluoromethyl-benzyl)-1H-indazol-5-ylmethylene]-2-[(1H-[1,2,3]triazol-4-ylmethyl)-amino]-thiazol-4-one]
11.2 nM | Cc1nnc(CNC2=NC(=O)/C(=C/c3ccc4c(cnn4Cc4ccc(Cl)cc4C(F)(F)F)c3)S2)[nH]1 [Compound 35, 5-[1-(4-Chloro-2-trifluoromethyl-benzyl)-1H-indazol-5-ylmethylene]-2-[(5-methyl-4H-[1,2,4]triazol-3-ylmethyl)-amino]-thiazol-4-one]
56.8 nM | O=C1N=C(NC(CO)CO)S/C1=C\c1ccc2c(cnn2Cc2ccc(Cl)cc2C(F)(F)F)c1 [Compound 38, 5-[1-(4-Chloro-2-trifluoromethyl-benzyl)-1H-indazol-5-ylmethylene]-2-(2-hydroxy-1-hydroxymethyl-ethylamino)-thiazol-4-one]
9.7 nM | O=C1N=C(NC2(C(=O)O)CC2)S/C1=C\c1ccc2c(cnn2Cc2ccc(Cl)cc2C(F)(F)F)c1 [Compound 45, 1-{5-[1-(4-Chloro-2-trifluoromethyl-benzyl)-1H-indazol-5-ylmethylene]-4-oxo-4,5-dihydro-thiazol-2-ylamino}-cyclopropanecarboxylic acid]
7.7 nM | CNC(=O)CNC1=NC(=O)/C(=C/c2ccc3c(cnn3Cc3ccc(Cl)cc3C(F)(F)F)c2)S1 [Compound 41, 2-{5-[1-(4-Chloro-2-trifluoromethyl-benzyl)-1H-indazol-5-ylmethylene]-4-oxo-4,5-dihydro-thiazol-2-ylamino}-N-methyl-acetamide]
